Like-named read-outs stand apart in the source and are kept apart here.
What was measured:
[1] = tested on: paclitaxel binding site on tubulin; assay: Paclitaxel binding site inhibition assay ([3H]paclitaxel displacement from microtubules); parameters: species or system bovine; settings: 4 μM test agent, 2 μM [3H]paclitaxel, microtubules from 2 μM tubulin and 20 μM dideoxyGTP
Description: (§1) General. Tubulin without microtubule-associated proteins was prepared from fresh bovine brains[32] The normoisotopic and tritiated forms of paclitaxel and normoisotopic docetaxel were provided by the Drug Synthesis and Chemistry Branch, National Cancer Institute. (+)-Discodermolide was from Novartis Pharmaceutical Corporation. Ca^2+- and Mg^2+-free RPMI-1640 culture medium were from GIBCO/BRL-Life Technologies. Fetal bovine serum (FBS) was from Hyclone. Cell lines were obtained from American Type Culture Collection (Manassas, Va.).
Paclitaxel binding site inhibition assay. A stock solution of [^3H]paclitaxel (26.8 μM, 16.2 Ci/mmol), obtained from the NCI, was prepared in 37% (v/v) DMSO. The test agents were prepared in 25% (v/v) DMSO-0.75 M monosodium glutamate (prepared from a 2M stock solution adjusted to pH 6.6 with HCl). The radiolabeled paclitaxel and test agents, as indicated in terms of final concentrations, were mixed in equal volumes and warmed to 37° C. A reaction mixture (50 μL) containing 0.75 M monosodium glutamate, 4.0 μM tubulin, and 40 μM ddGTP (a non-hydrolyzable analog of GTP) was prepared and incubated at 37° C. for 30 min to preform microtubules. An equivalent volume of drug mixture with [^3H]paclitaxel was added to preformed polymer and incubated for 30 min at 37° C. Bound [^3H]paclitaxel was separated from free drug by centrifugation of the reaction mixtures at 14000 rpm for 20 min at room temperature. Non-specific binding was determined by addition of a 12-fold excess of docetaxel. Radioactive counts from the supernatant (50 μL) were determined by scintillation spectrometry. Bound [^3H]paclitaxel was calculated from the following: total paclitaxel added to each reaction mixture minus the paclitaxel present in the supernatant (free drug). The % bound values were normalized to the control values with no inhibitor added.

[2] = tested on: tubulin; assay type: biochemical, bovine; settings: for MT stabilizing activity (%): tubulin assembly induced by test agent at 10 μM vs. 10 μM paclitaxel (100%), single determinations at 30° C.
Description: as §1
Tubulin Polymerization[32] Tubulin assembly was followed in a Beckman-Coulter 7400 spectrophotometer, equipped with an electronic Peltier temperature controller, reading absorbance (turbidity) at 350 nm. Reaction mixtures (0.25 mL final volume) contained tubulin (final concentration 10 μM; 1 mg/mL), monosodium glutamate (0.8 M from a stock solution adjusted to pH 6.6 with HCl), DMSO (final volume 4% v/v), and differing concentrations of test agent where indicated. Reaction mixtures without test agent were cooled to 0° C. and added to cuvettes held at 0.25-0.5° C. in the spectrophotometer. Test agent in DMSO was then rapidly mixed in the reaction mixture. Each run contained one positive control (paclitaxel, 10 μM final concentration) and one negative control (DMSO only). Baselines were established at 0.25-2.5° C. and temperature was rapidly raised to 30° C. (in approximately 1 min) and held there for 20 min.

[3] = tested on: 2008 (ovarian); assay: Cell growth inhibition (MTS), 2008; assay type: cell-based, human; settings: Homo sapiens
Description: (§2) Cell Growth Inhibition[34] Cells were plated (500-2000 cells/well depending on the cell line) in 96-well microplates, allowed to attach and grow for 48 h, then treated with vehicle (4% DMSO, a concentration that allowed doubling times of 24 h or less) or test agent (50, 10, 2, 0.4 and 0.08 μM for the new agents; 0.001, 0.005, 0.010, 0.020 and 0.100 μM for paclitaxel and discodermolide) for the given times. One plate consisted of cells from each line used for a time zero cell number determination. The other plates in a given determination contained eight wells of control cells, eight wells of medium and each agent concentration tested in quadruplicate. Cell numbers were obtained spectrophotometrically (absorbance at 490 nm minus that at 630 nm) in a Dynamax plate reader after treatment with 3-(4,5-dimethylthiazol-2-yl)-5-(3-carboxymethoxyphenyl)-2-(4-sulfophenyl)-2H-tetrazolium (MTS) using phenazine methanesulfonate as the electron acceptor. After initial screening with the above 5-fold dilutions, fifty percent growth inhibitory concentration (GI50) values were determined for each agent by repeating the screen using 2-fold dilutions (five concentrations) centered on the initial estimated GI50 concentration, again in quadruplicate.

[4] = tested on: PC3 (prostate); assay: Cell growth inhibition (MTS), PC3; assay type: cell-based; settings: Homo sapiens, read-out: GI50 PC3 (prostate)
Description: as §2

[5] = tested on: MDA-MB231 (breast); assay: Cell growth inhibition (MTS), MDA-MB231; assay type: cell-based, human; settings: Homo sapiens
Description: as §2

Row | GI50 ([4]; 72 h continuous exposure, mean ± SD, N = 4) [nM] | GI50 ([5]; MDA-MB-231, 72 h continuous exposure, mean ± SD, N = 4, read-out: GI50 MDA-MB231 (breast)) [nM] | Compound | Displacement of [3H]paclitaxel (%) [1] [%] | Displacement of [3H]paclitaxel (%) ([1]; N = 6, means ± SD) | microtubule assembly compared with paclitaxel (in words) ([2]; FIG. 6A, equivalent assembly at lower concentrations and temperatures) | properties of the induced polymer: speed of induction, resistance to cold-induced disassembly (in words) ([2]; FIGS. 6A, 6C, 6D, analogs at somewhat lower potencies than discodermolide) | MT stabilizing activity (%) [2] [%] | GI50 ([3]; 72 h, read-out: GI50 2008 (ovarian)) [nM] | GI50 ([3]; 72 h, read-out: GI50 2008 (ovary)) [nM] | GI50 ([4]; 72 h) [nM] | GI50 ([5]; MDA-MB-231, 72 h, read-out: GI50 MDA-MB231 (breast)) [nM] | GI50 ([5]; MDA-MB-231, 72 h, read-out: GI50 MDA-MB-231 (breast)) [nM] | GI50 ([3]; 72 h continuous exposure, mean ± SD, N = 4, read-out: GI50 2008 (ovarian)) [nM]
1 | – | – | C=C/C=C\[C@H](C)[C@H](OC(N)=O)[C@@H](C)[C@H](O)[C@@H](C)C/C(C)=C\[C@H](C)[C@@H](O)[C@@H](C)/C=C\[C@@H](O)C[C@@H]1OC(=O)[C@H](C)[C@@H](O)[C@H]1C [discodermolide, (+)-discodermolide] | 64 ± 2 | 64 ± 2 | superior to paclitaxel | more resistant to cold-induced disassembly | >100 | 72 ± 5 | 72 ± 5 | 67 ± 4 | 16 ± 3 | 16 ± 3 | –
2 | 15 ± 2 | 2.4 ± 1.6 | CC(=O)O[C@H]1C(=O)[C@@]2(C)[C@H]([C@H](OC(=O)c3ccccc3)[C@]3(O)C[C@H](OC(=O)[C@H](O)[C@@H](NC(=O)c4ccccc4)c4ccccc4)C(C)=C1C3(C)C)[C@]1(OC(C)=O)CO[C@@H]1C[C@@H]2O [paclitaxel, reference compound] | 37 ± 1 | – | – | – | 100 | – | – | – | – | – | 9.2 ± 1.6

— patent publication US20060270862A1, “Analogs of discodermolide and dictyostatin-1, intermediates therefor and methods of synthesis thereof” (priority 2002, published 2006)
